Holding throughout (assay): growth of human tumour cells (NCI), 48 h
The subject of assay [1] is MOLT-4 leukemia.
The subject of assay [2] is OVCAR-5 ovarian.
Assay [3] concerns HCT-116 colon.
The subject of assay [4] is COLO 205 colon.
In assay [5] the test system is ACHN renal.
Assay [6] deals with HOP-92 NSCLC.
In assay [7] the test system is HS 578T breast.
The subject of assay [8] is PC-3 prostate.
Assay [9] deals with MCF7 breast.
For assay [10], the system named is T-47D breast.

Results on 13 molecules are retold here after PubChem BioAssay (NCI).

Each structure is given as a SMILES string.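 Grown in 96-well plates, cells were treated for 48 hours with each compound at five concentrations. Insufficient inhibition: endpoint recorded as highest concentration tested. The concentration for 50% growth inhibition is given as GI50. TGI denotes the concentration required for complete inhibition of growth.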

For the molecule `O=C(COc1ccc(-c2nc3cc(Cl)c(Cl)cc3[nH]2)cc1)N=Nc1c(O)[nH]c2ccccc12`, the GI50 was 3.57 µM in [1]; greater than 100 µM in assay [2]; 9.12 µM in [3]; 2.29 µM in [4]; 3.71 µM in [5]; 1.59 µM in assay [6]. Also, in assay [7], the GI50 was 1.61 µM. In addition, the TGI in assay [1] was greater than 100 µM; in assay [2] it was greater than 100 µM; in assay [3] it was greater than 100 µM; in [4] it was greater than 100 µM; in [5], greater than 100 µM; in assay [6], 5.22 µM. Further, the TGI in assay [7] was 5.68 µM.

With `Cc1ccc(C(=O)N=Nc2c(O)[nH]c3ccc(Cl)cc23)cc1`, the GI50 was 3.2 µM in assay [1]; 44.6 µM in assay [2]; 10.4 µM in assay [3]; 25.9 µM in [8]; 19 µM in assay [4]; greater than 50 µM in assay [5]. Further, the results for the GI50 in [9] and in assay [7] were 13.5 µM and greater than 50 µM, respectively. Also, the TGI in assay [1], in assay [2], in [3], in assay [8], in assay [4] and in assay [5] was greater than 50 µM throughout. In addition, the TGI in assay [9] and in assay [7] was greater than 50 µM throughout.

`CCCCN1CCN(c2ccc3nc(-c4ccc5nc(-c6ccc(OCC)c(OCC)c6)[nH]c5c4)[nH]c3c2)CC1`: the GI50 was 1.22 µM in assay [1]; 1.9 µM in [2]; 0.431 µM in assay [3]; 1.08 µM in assay [8]; 0.231 µM in [4]; 0.922 µM in assay [5]. In addition, the GI50 in assay [6] is 1.23 µM; in [10] it was 1.36 µM. Further, the TGI stood at 3.86 µM in assay [1]; 3.4 µM in assay [2]; 1.66 µM in assay [3]; 2.44 µM in assay [8]; 1.52 µM in [4]; 2.12 µM in [5]. Besides, the results for the TGI in [6] and in assay [10] were 3.17 µM and 7.88 µM, respectively.

`O=C(CC1C(=O)Nc2ccccc2S1(=O)=O)Nc1cccc(Cl)c1` (stereo unspecified): the TGI in assay [1] came to 32.3 µM; in [2], 59.1 µM; in [3], 32.1 µM; in assay [5], 33.5 µM; in assay [6], 32.2 µM.

Consider `Cc1cc(NS(=O)(=O)c2ccc(Nc3c4ccccc4nc4c(C(=O)Nc5ccc(S(=O)(=O)N=C(N)N)cc5)ccc(Cl)c34)cc2)no1`, for which the TGI was 67.3 µM in [1]; greater than 100 µM in assay [2]; greater than 100 µM in assay [3]; greater than 100 µM in [4]; greater than 100 µM in assay [5].

As for `COc1cc2ccc(CC(N)=O)cc2cc1OC`, the TGI in [1], in [2], in [3], in [4] and in assay [6] was greater than 100 µM throughout.

For `Cc1cnc(SCCN2CCN(C)CC2)nc1-c1cc2ccccc2s1`, the TGI worked out at 7.5 µM in assay [1], 26.8 µM in assay [3], 29.2 µM in assay [4] and 18.3 µM in assay [6].

As to `CN1C(=O)C(=CN(C)c2ccccc2)C(=O)N(C)C1=O`, the TGI in assay [1], in assay [2], in assay [3] and in assay [5] was greater than 100 µM each time.

Regarding `CCCCCCCCCCCCCCNCC(OCC)OCC`, the TGI in assay [2] came to 28.6 µM; in assay [3], 23.1 µM; in [4], 28 µM; in assay [5], 27 µM; in assay [6] it was 26.4 µM.

As to `N=C(N)SCc1ccc([N+](=O)[O-])cc1[N+](=O)[O-]`, the GI50 in assay [1] is 3.07 µM; in assay [2], 23.1 µM; in assay [3] it was 3.53 µM; in assay [8] it was 13.4 µM; in assay [4], 2.9 µM; in assay [5] it was 8.04 µM. For the same molecule, the GI50 in [6] was 2.4 µM; in [9], 2.04 µM; in assay [10], 2.59 µM. Also, the TGI was found to be 20.2 µM in assay [1]; 40 µM in assay [2]; 13.6 µM in assay [3]; 87.2 µM in assay [8]; 7.96 µM in assay [4]; 21.1 µM in assay [5]. The TGI in [6] stood at 9.91 µM; in assay [9], 16.9 µM; in [10], 11.4 µM.

As to `COc1ccc(C#CC2=C(c3cc(OC)c(OC)c(OC)c3)C(=O)OC2)cc1`, the GI50 in assay [1] is 1.1 µM; in assay [2], greater than 50 µM; in assay [3], 1.8 µM; in assay [8], 2.95 µM; in [4] it was 4.15 µM; in [5], 5.89 µM. Besides, the GI50 in assay [9] is 0.948 µM; in assay [7], 13.1 µM. Further, the TGI in [1] is greater than 50 µM; in assay [2], greater than 50 µM; in assay [3] it was greater than 50 µM; in assay [8] it was greater than 50 µM; in [4], greater than 50 µM; in assay [5] it was 25.3 µM. Further, the TGI in assay [9] and in assay [7] was greater than 50 µM each time.

For `FC(F)(F)c1[nH]ncc1-c1nc2ccc3[nH]ncc3c2c2c1CCCC2`, the GI50 in assay [1] is 1.29 µM; in assay [2], 2.51 µM; in [3], 0.523 µM; in assay [8], 2.08 µM; in assay [4], 1.54 µM; in [5], 1.39 µM. The GI50 in assay [6] is 1.21 µM; in assay [9] it was 1.67 µM; in [10], 2.03 µM. Besides, the TGI in [1] amounted to 5.29 µM; in assay [2] it was 13.1 µM; in assay [3], 10.6 µM; in [8], 8.73 µM; in assay [4], 4.08 µM; in assay [5] it was 9.62 µM. In addition, the results for the TGI in assay [6], in assay [9] and in assay [10] were 3.5 µM, 10.1 µM and 9.39 µM, respectively.

With `COC[C@@H](N=CN1CCc2cc(OC)c(OC)cc2C1)C(C)(C)C`, the TGI in assay [1], in [3], in assay [4], in assay [5] and in assay [6] was greater than 100 µM each time.
